Data taken from US10821123B2, “Use of ribose for treatment of subjects having congestive heart failure” (priority 2016, dated 2020).

Legend:
[1] = tested on: mice with chronic pressure overload (ascending aortic constriction); experiment: Mouse model of chronic pressure overload (ascending aortic constriction), myocardial remodeling; type: in vivo
Source text: This remodeling effect was manifested by lower left ventricular dimensions, lower ventricular wall thicknesses, and greater fractional shortening values compared to untreated controls. […] The study consisted of two ribose treated groups (high and low dose) with the high dose treated group responding better than the low dose group compared to untreated controls. The high dose provided D-ribose exposures that were 4-fold greater than observed in the low dose group providing evidence of a dose effect. The once daily, subcutaneous administration of D-ribose was intended to mimic once daily oral dosing in humans. […] Mice were subjected to ascending aortic constriction (AAC) leading to LV hypertrophy followed by severe LV systolic dysfunction and associated heart failure. In this situation, mitochondrial ATP synthesis is reduced and ROS production is increased in association with advancing heart failure. Reduced ATP levels can contribute to progressive loss of cardiac function from increasing energy deficit. Increased ROS can result in oxidation of critical enzymes and a diminished reducing environment, leading to apoptosis and fibrosis, which are aspects of cardiac remodeling. Mice were divided into four groups; Sham controls (same thoracic surgery with no constriction), AAC untreated, and AAC D-ribose treated (high and low dose). D-ribose for injection (5% to 50% weight/volume) was administered at a dose of 25 to 500 mg/kg body weight by subcutaneous or intraperitoneal injection one to four times daily. After initiation of D-ribose treatment, animals in all groups were monitored for progressive heart failure using echocardiography. LV volumes, fractional shortening, and LV wall thicknesses were measured at 10 and 15 weeks. When LV dilation and fractional shortening were sufficiently advanced, animals were subjected to physical function testing using a motorized treadmill. Animals were allowed to recover for one week and their hearts were harvested and evaluated histologically for myocyte hypertrophy and fibrosis.

[2] = healthy subjects, oral; cited from earlier work
[3] = tested on: patients with NYHA Class II to IV heart failure; experiment: Remodeling effects in patients with NYHA Class II to IV heart failure taking D-ribose; type: in vivo, human; conditions: 10 to 50 g oral once daily fasted, within 3 months to one year
Method: Oral D-ribose powder for solution is administered at a dose of 10 to 50 grams per dose, once daily, fasted (e.g., 3 hours, 4, hours, 5 hours, 6 hours, 7 hours, 8 hours, 9 hours, 10 hours, 11 hours, 12 hours, or more). D-ribose powder for solution is dissolved in 50 to 250 mL of water or clear beverage and consumed within a 15 to 60 minute period. It is preferred that D-ribose be administered fasted. Patients are administered D-ribose for a period of at least two weeks but possibly for the remainder of their lives. Within a period of 3 months to one year, in at least some embodiments, patients taking D-ribose may have a lower Left Ventricular Systolic Volume Index ([…]), a lower Left Ventricular Diastolic Volume Index ([…]), higher Ejection Fractions (EF), higher dP/dtmax values, lower dP/dtmin values, and/or higher cardiac output than patients taking placebo.

[4] = Safety, tolerability and pharmacokinetics of multiple oral doses of D-ribose solution in subjects with stable chronic heart failure; type: in vivo, human
Method: Although a morning oral dose of D-ribose (overnight fasting) produced significant blood plasma levels, the mid-day and evening doses produced diminished blood levels similar to that observed in healthy subjects given food immediately prior to dosing, even though D-ribose administration to subjects with stable congestive heart failure occurred over 2 hours after their previous meal.
The safety, tolerability, pharmacokinetics and pharmacodynamics of multiple oral doses of D-ribose solution was studied in 14 subjects with stable, chronic heart failure. It is well known that bolus oral D-ribose can induce a dose-dependent transient hypoglycemia that is preceeded by a transient spike in insulin levels. This can result in symptomatic hypoglycemia in subjects whose blood glucose levels fall sufficiently far. This transient hypoglycemia is the dose limiting side effect of D-ribose treatment, although it is readily overcome by drinking a glass of fruit juice. For this reason, subjects were initially administered a 10 g dose, fasted, followed 5 hours later by a 5 g dose at least 2.5 hours after the end of the previous meal. Subjects that tolerated the 10 g dose completed the remainder of the study at the 10 g dose. […] All subjects tolerated the 10 g dose, so the remainder of the study was conducted using the 10 g dose only. For the next two days, subjects were administered 10 g of D-ribose solution three times daily at 5 hour intervals beginning with a fasted morning dose around 7 a.m. Meals were served two hours after each dose such that the second and third daily doses were administered approximately 2.5 hours after completion of the previous meal. On the third day of dosing, subjects were administered a single dose of chewable tablets containing 16 g of glucose at 0, 30, and 60 minutes post-dose according to a predefined randomization schedule. The purpose of this was to determine whether glucose could attenuate any symptomatic hypoglycemia (if observed), or if it would impact the rate or extent of D-ribose absorption into the blood. Blood levels of D-ribose and insulin were determined at pre-defined time points throughout the study. Blood glucose levels were monitored continuously throughout the study. Four major outcomes emerged from this study. […] This phenomenon was not observed in normal subjects and appears unique to heart failure patients. Lastly, supplemental glucose administered between 0 and 60 minutes post-dose had no effect on D-ribose absorption into the blood.

[5] = tested on: patients with acute decompensated heart failure; experiment: Dyspnea and/or edema in patients hospitalized for acutely decompensated heart failure; type: in vivo, human; conditions: 10 to 50 g oral once daily fasted
Method: Patients admitted to the hospital for acute decompensated heart failure may be given oral D-ribose powder for solution at a dose of 10 to 50 grams per dose, once daily, fasted (e.g., 3 hours, 4, hours, 5 hours, 6 hours, 7 hours, 8 hours, 9 hours, 10 hours, 11 hours, 12 hours, or more). D-ribose powder for solution is dissolved in 50 to 250 mL (preferably 50 mL in this case) of water or clear beverage and consumed within a 15 to 60 minute period. It is preferred that D-ribose be administered to patients that are fasted. Patients are treated until symptoms of dyspnea and fluid overload have stabilized.

[6] = tested on: patients with NYHA Class II to IV heart failure; experiment: Functional improvement in patients with NYHA Class II to IV heart failure taking D-ribose; type: in vivo, human; conditions: 10 to 50 g oral once daily fasted
Method: Oral D-ribose powder for solution is administered at a dose of 10 to 50 grams per dose, once daily, fasted (e.g., 3 hours, 4, hours, 5 hours, 6 hours, 7 hours, 8 hours, 9 hours, 10 hours, 11 hours, 12 hours, or more). D-ribose powder for solution is dissolved in 50 to 250 mL of water or clear beverage and is consumed within a 15 to 60 minute period. It is preferred that D-ribose be administered to patients that are fasted. Patients are administered D-ribose for a period of at least two weeks, but possibly for the remainder of their lives.

[7] = tested on: dogs with pacing-induced heart failure; experiment: Canine model of heart failure induced by chronic cardiac pacing, longevity; type: in vivo
Source text: It has been shown that administration of D-ribose can improve cardiac function in animal models of heart failure. […] Animals treated with once daily, oral D-ribose at a weight equivalent dose of 10 g in a 70 kg human lived 40% longer than placebo animals. It has been hypothesized that D-ribose helps retain cardiac function by maintaining the adenylate pool in cardiomyocytes that are overworked due to underlying heart disease. Supplemental D-ribose can bypass the cell's need to synthesize D-ribose via the pentose phosphate shunt, which can be a rate limiting step to synthesis of ATP in cardiomyocytes by either the salvage or de novo pathways. It has been shown in several studies that D-ribose can enhance the rate of recovery of ATP and other constituents of the adenylate pool in the hearts of animals subjected to hypoxic stress. However, there may be additional benefits to D-ribose treatment in subjects suffering from diminished mitochondrial function in disease states such as coronary artery disease, ischemic heart disease, dilated cardiomyopathy, or other conditions leading to heart failure.
Dogs were surgically implanted with a cardiac pacing device used to induce heart failure through chronic cardiac pacing. In addition, an aortic catheter, coronary sinus catheter (for blood sampling), left ventricular catheter and pressure transducer, left ventricular piezoelectric crystals, and a transonic flow probe in the left circumflex coronary artery were implanted to measure a variety of hemodynamic parameters and to sample coronary venous blood. Subsequent to recovery from surgery, animals were paced for 3 weeks at a rate of 210 beats per minute (bpm) followed by an increased rate of 350 bpm which continued until the animals were deemed to be terminal. Hemodynamic and metabolic measurements were made on a scheduled basis throughout the pacing period. Dogs were treated with 150 mg/kg D-ribose solution orally either once daily (fasted) or three times daily. Placebo dogs were given an equivalent volume of water. D-ribose treatment started 10 days following the start of pacing and continued until the animal was deemed to be terminal. […] However, one significant difference was how long the D-ribose treated animals lived. Dogs treated once daily lived an average of 38.3 days versus 27.3 days for placebo animals (p<0.03). Furthermore, although the group of dogs treated three times daily (tid) with D-ribose consisted of fewer animals than the group of dogs treated once daily, the tid group lived on average 30.5 days, which was not statistically different than placebo animals (p>0.20). […]

[8] = high dose AAC D-ribose treated vs AAC control mice, p<0.05
[9] = low dose AAC D-ribose treated vs AAC controls, not statistically significant

O=C[C@H](O)[C@H](O)[C@H](O)CO [D-ribose]
heart weights ([1]; D-ribose treated animals vs untreated controls): heart weights were greater in untreated controls than D-ribose treated animals
fibrosis by differential staining (tissue sections) [1, 8]: significantly less fibrosis
myocyte diameters (tissue sections) [1, 8]: significantly smaller
left ventricular fractional shortening (echocardiography) ([1]; high dose AAC D-ribose treated vs AAC controls, p<0.01): significantly lower degree of remodeling
left ventricular dimensions (echocardiography) ([1]; high dose AAC D-ribose treated vs AAC controls, p<0.01 at systole, p=0.01 at diastole): significantly lower degree of remodeling
total wall thickness (echocardiography) ([1]; high dose AAC D-ribose treated vs AAC controls, p<0.03): significantly lower degree of remodeling
left ventricular dimensions (echocardiography) [1, 9]: numerical improvements
left ventricular fractional shortening (echocardiography) [1, 9]: numerical improvements
total wall thickness (echocardiography) ([1]; low dose AAC D-ribose treated vs AAC controls, p<0.04): statistically significant
D-ribose exposure, high dose relative to low dose group ([1]; mice, once daily subcutaneous dose): 4 fold
absorption relative to metabolism [2]: absorbed faster than it is metabolized
blood levels after administration immediately following meals vs after fasting [2]: greatly reduced
dose proportionality of blood levels [2]: increase more than proportionally with increasing dose
LVESVI, LVEDVI, EF, dP/dtmax, dP/dtmin, cardiac output vs placebo [3]: may have a lower Left Ventricular Systolic Volume Index (LVESVI)
episodes of symptomatic hypoglycemia ([4]; 10 g bolus oral dose, even with fasted doses): no episodes of symptomatic hypoglycemia
tolerability ([4]; 10 g bolus oral dose, subjects with stable chronic heart failure): well tolerated
effect of supplemental glucose on D-ribose absorption into the blood ([4]; 16 g glucose chewable tablets at 0, 30 or 60 minutes post-dose): no effect
share of non-fasted doses with blood levels less than 15% of a 10 g fasted dose ([4]; oral 10 g mid-day and evening doses): 30%
blood levels from mid-day and evening doses relative to 10 g fasted morning dose ([4]; oral 10 g, approximately 2.5 hours after previous meal): roughly 40%
mean blood level exposure of mid-day 5 g dose, lower than 10 g fasted morning dose ([4]; oral, 5 g mid-day dose at least 2.5 hours after previous meal vs 10 g fasted morning dose): 30 fold
symptoms of dyspnea vs patients taking diuretics only [5]: may exhibit reduced symptoms of dyspnea within a significantly shorter timeframe
sub-maximal (Six Minute Walk Test) or maximal (CPX) exercise capacity [6]: may exhibit improved sub-maximal exercise capacity
assessments of fatigue, dyspnea, edema, Global Clinical Status and other outcomes ([6]; within 3 months to one year, vs patients not taking D-ribose): may show improved assessments
hemodynamics or other metabolic measures vs placebo ([7]; 150 mg/kg oral D-ribose treated dogs): no significant differences
average survival time ([7]; 150 mg/kg oral once daily (fasted), p<0.03 vs placebo (27.3 days)): 38.3 days
average survival time ([7]; 150 mg/kg oral three times daily (tid), p>0.20 vs placebo, not statistically different): 30.5 days
longer life than placebo animals ([7]; once daily oral dose equivalent to 10 g in a 70 kg human): 40%
